# In article PMC5515971, “Utility of spherical human liver microtissues for prediction of clinical drug-induced liver injury” (Archives of Toxicology, 2017):
# Like-named read-outs stand apart in the source and are kept apart here.
# Legend:
# [1] = tested on: primary human hepatocytes (PHH); experiment: Cytotoxicity (cellular ATP, CellTiter-Glo) in 2D plated primary human hepatocytes, 48 h treatment; format: cell-based; details: for IC50: Hepatocyte, read-out: Geomean IC50;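 for all read-outs here: 384-well plates, luminescence read-out, normalized to vehicle wells with 1% DMSO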
# Experimental: Cryopreserved PHH (lot IZT) were thawed in InVitroGro HT™ thawing media at 37 °C, pelleted, and resuspended. Viable hepatocytes were counted by Trypan blue exclusion and plated in black-walled, BioCoat™ collagen 384-well plates at 13,000 cells/well in InVitroGro CP™ plating media supplemented with 1% Torpedo™ Antibiotic Mix and 5% fetal bovine serum and incubated overnight for 18 h. Cells were then treated with compounds for 48 h diluted in InVitroGro HI™ incubation media containing 1% Torpedo Antibiotic Mix, 10% fetal bovine serum, and 1% DMSO. […] Luminescence was determined on an EnVision™ Muliplate Reader (PerkinElmer, Waltham, MA, USA), and data were normalized to vehicle (1% DMSO) control wells.
# [2] = cited from earlier work
# [3] = cited from earlier work; for P/N (DILI positive / DILI negative): P = DILI severity categories 1, 2 and 3, N = categories 4 and 5; for DILI category: clinical, from literature and product labels
# [4] = Clinical DILI severity categorization and DILI pattern; details: P = DILI severity categories 1, 2 and 3; N = categories 4 and 5
# [5] = tested on: 3D human liver microtissues (hLiMT); experiment: Cytotoxicity (cellular ATP, CellTiter-Glo 2.0) in 3D human liver microtissues, 14 day repeat-dose treatment; details: for IC50: Homo sapiens, Hepatocyte, 336 h, read-out: Geomean IC50 [µM]
# [6] = ref Chen et al 2016 / Chen et al 2011; cited from earlier work
# [7] = tested on: 3D human liver microtissues (hLiMT); experiment: Cytotoxicity (cellular ATP) in 3D human liver microtissues, 5-6 days treatment; format: cell-based; details: Homo sapiens; hLiMT, 5/6 days, ATP content; read-out: IC50 SHORT;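 note: Hanging-drop spheroids, seven-point dilution series, re-dosed on day 3, CellTiter-Glo 2.0 luminescence, normalized to 0.5 or 1% DMSO vehicle controls on the same plate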
# [8] = 2D primary human hepatocytes (lot IZT), 48 h treatment, total cellular ATP content
# [9] = human Cmax total, used for IC50/Cmax
# [10] = human total plasma Cmax, ref literature values
# [11] = Table 1, ref Garside et al. (2014)
# [12] = clinical DILI severity category, 1-5
# [13] = table S-5, ref Garside et al. 2014
# [14] = table S-4, ref Garside et al. 2014
Structure (SMILES),"IC50 [1, 8] [µM]","Cmax [2, 9] [nM]","Cmax [2, 10] [nM]",P/N (DILI positive / DILI negative) [3],"DILI severity category [3, 11]","DILI severity category [3, 12]",DILI category ([3]; ref Garside et al. 2014),P/N (DILI positive / DILI negative) [4],IC50 [5] [µM],FDA DILI Classification DILI severity score [6],LTKB DILI classification [6],classification at 10× MOS threshold ([1]; PHH 48 h),classification at 10× MOS threshold ([5]; hLiMT 14 days),"DILI severity category [3, 13]","IC50 ([1]; Homo sapiens, 48 h) [µM]",IC50 [7] [µM],"DILI severity category [3, 14]",classification at 50× MOS threshold ([5]; hLiMT 14 days)
CN(C)C(=O)Oc1cccc([N+](C)(C)C)c1 [Neostigmine],> 10,45,44.8,N,5: No DILI (N = 25),5. No DILI,5. No DILI,N,> 10,–,–,–,–,–,–,–,–,–
CCCCNc1cc(C(=O)O)cc(S(N)(=O)=O)c1Oc1ccccc1 [Bumetanide],> 10,84.8,84.8,N,4: Enzyme elevations in clinic (N = 16),4. Enzyme Elevations in Clinic,4. Enzyme Elevations in Clinic,N,> 10,3,Ambiguous DILI concern,–,–,–,–,–,–,–
CNC1(C)C2CCC(C2)C1(C)C (stereo not drawn) [Mecamylamine],> 50,–,140,N,5: No DILI (N = 25),5. No DILI,5. No DILI,N,> 25,0,no DILI concern,–,–,–,–,–,–,–
Cc1ccc(Cl)c(Nc2ccccc2C(=O)O)c1Cl [Meclofenamate],292,81100,81100,N,4: Enzyme elevations in clinic (N = 16),4. Enzyme Elevations in Clinic,4. Enzyme Elevations in Clinic,N,~23.1,3,Ambiguous DILI concern,false positive,false positive,–,–,–,–,–
C#CCN(C)Cc1ccccc1 [Pargyline],> 100,1000,1000,N,4: Enzyme elevations in clinic (N = 16),4. Enzyme Elevations in Clinic,4. Enzyme Elevations in Clinic,N,> 100,–,–,–,–,4. Enzyme Elevations in Clinic,–,–,–,–
O=C(NC1CCN(CCc2c[nH]c3ccccc23)CC1)c1ccccc1 [Indoramin],> 50,290,290,N,5: No DILI (N = 25),5. No DILI,5. No DILI,N,> 50,–,–,–,–,–,–,–,–,–
[H]/N=C(/N)c1ccc(NCc2nc3cc(C(=O)N(CCC(=O)O)c4ccccn4)ccc3n2C)cc1 [Dabigatran],–,370,370,N,4: Enzyme elevations in clinic (N = 16),4. Enzyme Elevations in Clinic,4. Enzyme Elevations in Clinic,N,> 50,–,–,–,–,–,> 25,–,–,–
CC(=O)N1CCN(c2ccc(OCC3COC(Cn4ccnc4)(c4ccc(Cl)cc4Cl)O3)cc2)CC1 (stereo not drawn) [Ketoconazole],47.2,11300,11300,–,1: Severe clinical DILI (N = 23),1. Severe Clinical DILI,1. Severe Clinical DILI,–,4.6,8,most DILI concern,–,–,–,–,8.5,1,–
CN(C)C(=N)N=C(N)N [Metformin],> 100,7740,7740,–,3: Low clinical DILI concern (N = 23),3. Low Clinical DILI Concern,3. Low Clinical DILI Concern,–,> 100,0,less DILI concern,–,–,–,–,100,3,–
Cc1cc(CC(=O)O)n(C)c1C(=O)c1ccc(Cl)cc1 [Zomepirac],> 1000,13700,13700,N,5: No DILI (N = 25),5. No DILI,5. No DILI,N,> 1000,–,–,–,–,–,–,–,–,–
CN(Cc1cnc2nc(N)nc(N)c2n1)c1ccc(C(=O)N[C@@H](CCC(=O)O)C(=O)O)cc1 [Methotrexate],> 100,5000,5000,–,1: Severe clinical DILI (N = 23),1. Severe Clinical DILI,1. Severe Clinical DILI,–,> 100,3,most DILI concern,–,–,–,–,100,1,–
Cc1ccccc1C(OCCN(C)C)c1ccccc1 (stereo not drawn) [Orphenadrine],–,740,740,N,5: No DILI (N = 25),5. No DILI,5. No DILI,N,–,0,no DILI concern,–,–,5. No DILI,–,–,–,–
NC(CO)C(=O)NNCc1ccc(O)c(O)c1O (stereo not drawn) [Benserazide],> 500,3890,3890,N,5: No DILI (N = 25),5. No DILI,5. No DILI,N,> 62.5,–,–,–,–,–,–,–,–,–
O=C1CC2(CCCC2)CC(=O)N1CCCCN1CCN(c2ncccn2)CC1 [Buspirone],> 200,10,10,N,4: Enzyme elevations in clinic (N = 16),4. Enzyme Elevations in Clinic,4. Enzyme Elevations in Clinic,N,163,–,–,–,–,–,–,–,–,not
CC(C)(C)NCC(O)c1ccc(O)c(CO)c1 (stereo not drawn) [Albuterol],–,80,80,N,5: No DILI (N = 25),5. No DILI,5. No DILI,N,–,–,no DILI concern,–,–,–,–,–,–,–
